Source: US5023082A, “Sustained-release pharmaceutical compositions” (Yissum Research Development Company of the Hebrew …, priority 1986, dated 1991)

Experiment: Comparison of release rate of agents/salts from film-like implants
Assay type: physicochemical
Description: The amount of the pharmacological agent added to the implant will vary, in a manner understood by those of ordinary skill in the art, depending upon such criteria as: […] The above criteria will depend upon such factors as the patient's age, height, weight, sex, medical history, etc. The pharmacological agent must be present in an amount sufficient to impart therapeutic effect to the pharmaceutical composition. The nature of the active agent in the implant also plays an important role in the control release mechanism. […] Different salts of the same active agent may be released at different rates.

- Release rate from film-like implant compared with tetracycline HCl (20% w/w per protein, same implant containing 20% w/w tetracycline HCl): more slowly
- Release rate from film-like implants compared with chlorhexidine HCl (same formulation, 20% (w/w) chlorhexidine per protein): more slowly
Structure (SMILES): N=C(NCCCCCCNC(=N)NC(=N)Nc1ccc(Cl)cc1)NC(=N)Nc1ccc(Cl)cc1 [chlorhexidine acetate]
